Source: ChEMBL document CHEMBL4371004, “A-C Estrogens as Potent and Selective Estrogen Receptor-Beta Agonists (SERBAs) to Enhance Memory Consolidation under Low-Estrogen Conditions” (J Med Chem, 2018)
Values belong to the molecule of their own block, whether it stands above or below them.

Legend:
[1] = target: T1, Estrogen receptor beta (Homo sapiens, UniProt Q92731)
[2] = target: T2, Estrogen receptor (Homo sapiens, UniProt P03372)
T2 sequence (P03372 whole entry): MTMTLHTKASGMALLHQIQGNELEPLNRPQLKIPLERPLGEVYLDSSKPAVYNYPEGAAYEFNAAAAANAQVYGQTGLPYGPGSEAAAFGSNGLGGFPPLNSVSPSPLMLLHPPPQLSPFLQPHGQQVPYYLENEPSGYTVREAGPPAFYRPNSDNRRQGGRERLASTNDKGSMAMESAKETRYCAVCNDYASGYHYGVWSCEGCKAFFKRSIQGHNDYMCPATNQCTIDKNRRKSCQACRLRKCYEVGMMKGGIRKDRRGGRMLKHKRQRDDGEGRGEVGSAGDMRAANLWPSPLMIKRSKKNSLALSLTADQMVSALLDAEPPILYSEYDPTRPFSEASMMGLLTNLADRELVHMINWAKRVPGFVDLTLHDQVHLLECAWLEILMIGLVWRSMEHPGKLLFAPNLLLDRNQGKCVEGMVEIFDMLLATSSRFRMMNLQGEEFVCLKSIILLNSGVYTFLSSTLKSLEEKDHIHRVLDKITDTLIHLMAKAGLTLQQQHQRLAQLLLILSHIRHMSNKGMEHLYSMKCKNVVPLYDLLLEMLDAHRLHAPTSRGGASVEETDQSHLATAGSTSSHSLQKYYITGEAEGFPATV

[3] = target: T2, Estrogen receptor; remark: listed apart in the source
Description: Agonist activity at estrogen receptor alpha (unknown origin) after 22 hrs by cell-based luciferase reporter gene assay

[4] = target: T1, Estrogen receptor beta; remark: listed apart in the source
[5] = test system: Mus musculus; experiment: Memory enhancement effect in C57BL/6 mouse assessed as time spent with moved object at 0.05 mg/kg, po administered via gavage by object recognition test; type: functional
[6] = test system: Mus musculus; experiment: Memory enhancement effect in C57BL/6 mouse assessed as time spent with moved object at 0.05 mg/kg, ip by novel object recognition test; type: functional
[7] = test system: Mus musculus; experiment: Memory enhancement effect in C57BL/6 mouse assessed as time spent with novel object at 0.05 mg/kg, ip by novel object recognition test; type: functional
[8] = test system: Mus musculus; experiment: Memory enhancement effect in C57BL/6 mouse assessed as time spent with novel object at 10 pg administered as dorsal hippocampal infusion by novel object recognition test; type: functional
[9] = test system: Mus musculus; experiment: Memory enhancement effect in C57BL/6 mouse assessed as time spent with moved object at 10 pg administered as dorsal hippocampal infusion by novel object recognition test; type: functional
[10] = test system: Mus musculus; experiment: Memory enhancement effect in C57BL/6 mouse assessed as time spent with novel object at 0.05 mg/kg, po administered via gavage by novel object recognition test; type: functional

T1 sequence (Q92731 whole entry): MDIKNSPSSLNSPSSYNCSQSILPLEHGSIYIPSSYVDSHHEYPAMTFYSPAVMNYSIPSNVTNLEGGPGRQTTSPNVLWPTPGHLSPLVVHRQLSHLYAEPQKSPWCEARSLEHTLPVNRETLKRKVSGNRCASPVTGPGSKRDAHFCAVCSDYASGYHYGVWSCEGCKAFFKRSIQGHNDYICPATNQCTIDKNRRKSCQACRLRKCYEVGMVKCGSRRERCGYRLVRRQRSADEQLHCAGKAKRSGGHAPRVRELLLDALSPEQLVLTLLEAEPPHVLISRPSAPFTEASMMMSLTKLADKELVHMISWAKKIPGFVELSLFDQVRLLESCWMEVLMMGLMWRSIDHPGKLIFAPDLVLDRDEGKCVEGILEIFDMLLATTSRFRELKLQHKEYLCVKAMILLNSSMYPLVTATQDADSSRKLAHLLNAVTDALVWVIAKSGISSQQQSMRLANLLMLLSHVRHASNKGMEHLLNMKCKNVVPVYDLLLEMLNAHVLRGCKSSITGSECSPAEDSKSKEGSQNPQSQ

SMILES: CC1CCC(c2ccc(O)cc2)CC1 (stereo not drawn)
- EC50 [2]: > 10 µM
- EC50 [3]: > 10 µM

SMILES: O=C1CCC(c2ccc(O)cc2)CC1
- EC50 [1]: 19 µM

SMILES: C=C1CCC(c2ccc(O)cc2)CC1
- EC50 [2]: > 10 µM
- EC50 [3]: > 10 µM

SMILES: OCCC1CCC(c2ccc(O)cc2)CC1 (stereo not drawn)
- EC50 [2]: > 10 µM
- EC50 [3]: > 50 µM

SMILES: OCC=C1CCC(c2ccc(O)cc2)CC1 (racemic)
- EC50 [4]: 0.68 µM

SMILES: N#CC(Cc1ccc(O)cc1)c1ccc(O)cc1 (stereo not drawn) [DIARYLPROPIONITRILE]
- Time [5]: 2.76 s
- Time [6]: 3.2 s
- Time [7]: 3.52 s
- Time [8]: 2.35 s
- Time [9]: 4.5 s
- Time [10]: 3.89 s

Now from value to molecule:

- EC50 [1]: 0.25 µM
SMILES: Oc1ccc([C@]23CC[C@H](CC2)CO3)cc1

- EC50 [2]: > 10 µM
- EC50 [3]: > 20 µM
SMILES: OCC1CC=C(c2ccc(O)cc2)CC1 (racemic)

- EC50 [1]: 21 µM
SMILES: C=C1CCC(c2ccc(O)c(C=O)c2)CC1

- EC50 [4]: 1.57 µM
SMILES: ON=C1CCC(c2ccc(O)cc2)CC1 (stereo not drawn)

- EC50 [1]: 7.52 µM
SMILES: Oc1ccc([C@H]2CC[C@H](O)CC2)cc1

- EC50 [1]: 2.7 µM
SMILES: OC[C@]1(O)CC[C@H](c2ccc(O)cc2)CC1

- EC50 [1]: 6.29 µM
SMILES: C[C@]1(O)CC[C@@H](c2ccc(O)cc2)CC1

- EC50 [1]: 0.225 µM
SMILES: C=C1CCC(c2ccc(O)c(/C=N/O)c2)CC1
